Laboratory results reported in patent US12410407B2, “Choroid plexus organoids and methods for production thereof” (UNITED KINGDOM RESEARCH AND INNOVATION, priority 2019, dated 2025).
Like-named read-outs stand apart in the source and are kept apart here. Marks after values point to notes of the source that are not given here.

Tests used:
[1] = six trial participants, one of whom died; cited from earlier work
ChP epithelial barrier [2] = experiment: ChP organoid small-molecule permeability, NMR analysis of media and iCSF; conditions: for Presence in iCSF by NMR: after 2h incubation, 500 μM, L-Dopa in the presence of Carbidopa
Protocol: On day 5 media was replaced with NI media in the same 96-well. After two days EBs were embedded in 20 μl matrigel using sheets of dimpled parafilm and incubated for 20 min at 37° C. as previously described (2). EBs were then transferred to a 6-well plate with 3 ml of Expansion media per well. For ChP patterning, on day 10 treatment with 3 μM CHIR and 20 ng/ml BMP4 in Maturation media was used keeping a maximum number of 6 EBs in each 5 cm dish. The treatment was kept for 7 days in maturation media. On day 15 organoids were moved to an incubator with a shaker and were fed every 3-4 days with maturation media. From day 30 dissolved matrigel (1:50) was added to the maturation media.
For NMR experiments, ChP organoids were incubated in complete IDM+A media without phenol red and 1:50 Geltrex (Gibco, A14132-02) for 2 h, 12h, 24 h, 48h or 72h. Organoid media and iCSF were collected and centrifuged at 500 g for 5 min to remove debris. ^1H-NMR spectra were acquired using a Bruker Ultrashield 400 Plus operating at 400.1 MHz. Samples consisting of H2O/D2O mixtures were analyzed using HOD suppression to collect ^1H-NMR data. Chemical shifts (6) are shown in ppm. The yields of conversion were determined by relative integration of the signals in the ^1H-NMR spectra. Data analysis was performed using MestReNova (version 7.0) and GraphPad Prism (version 7.0b).
Because the NMR measurements of in vitro fluids detected unbound drug, the ratio (Km,uu,iCSF) was a simple function of the ratio of drug in in vitro CSF (Cu,iCSF) to drug in media (Cu,m) (eq E).
Thus, in order to test for such selective permeability to small molecules, we applied various therapeutically relevant small molecules and assayed their permeability by NMR analysis of organoid iCSF. […] We incubated the organoids with Dopa and with L-Dopa in the presence of Carbidopa, a small molecule that prevents the conversion of L-Dopa into Dopa (34, 35).

ChP epithelial barrier [3] = test system: ChP epithelial barrier; set-up: Km, uu, iCSF: unit not given beside the values
[4] = in vivo, from literature, cited from earlier work
[5] = In vivo drug levels in CSF and blood plasma, and unbound CSF to plasma ratio (literature data); set-up: species or system humans; conditions: human, calculated from literature values (Qalb 0.005)
Protocol: For comparison between in vitro and in vivo levels of small molecules in CSF, in vivo unbound CSF to blood plasma ratio, Kp,uu,CSF, was calculated as the ratio of the unbound drug in CSF (Cu,CSF) to that in blood plasma (Cu,p) similar to previously described (7) (eq A). The amount of unbound drug in each of CSF and plasma is the product of the total drug concentration (Cp) or (CCSF) and the fraction of drug that is unbound (fu,p) or (fu,CSF)(eqs B and C). Cp, CCSF, and fu,p were taken from literature (Table S2). However, because of the difficulty in obtaining large amounts of CSF, for most drugs fu,CSF is not known.

[6] = cited from earlier work
[7] = in vivo data from mouse
Description: Pre-clinical or clinical data of this molecule in humans are not yet available, but Phase I clinical trials are under way so any additional human in vitro data would be informative.

[8] = cited from earlier work; remark: listed apart in the source
protein misfolding = conditions: mouse model of Charcot-Marie Tooth-1B; cited from earlier work
[9] = total drug concentration in blood plasma
[10] = total drug concentration in CSF
[11] = in vivo data from mouse, estimate from graph in reference
[12] = unbound concentrations reported, average of two measurements

CN(C(=O)n1cnc(-c2ccc[n+]([O-])c2)c1)C1CCCCC1 [BIA-10-2474]
Adverse effects in Phase I clinical trials [1]: severe neurotoxicity | Time course of the ratio in iCSF to media (ChP epithelial barrier [2]; 2 h, 12h, 24 h and 72h): continued to accumulate in the iCSF | Presence in iCSF by NMR (ChP epithelial barrier [2]): able to cross the ChP epithelial barrier

CC(NC(C)(C)C)C(=O)c1cccc(Cl)c1 (stereo not drawn) [Bupropion]
Km, uu, iCSF (ChP epithelial barrier [3]): 1.07 | Cp [4, 9]: 29.8 ng/mL

NCCc1ccc(O)c(O)c1 [Dopamine]
Kp uu [5]: 0.185 | Km, uu, iCSF (ChP epithelial barrier [3]): 0.10 | CCSF ([4]; Δ upon injection): 9.01 ng/mL | Cp ([4]; Δ upon injection): 67.4 ng/mL | Entry into brain/CSF in vivo as established in the literature [6]: doesn't enter the brain in vivo

N[C@@H](Cc1ccc(O)c(O)c1)C(=O)O [L-DOPA, Levodopa]
iCSF/media ratio, L-Dopa compared to Dopa (ChP epithelial barrier [3]): consistently higher | CCSF [4, 10]: ~150 ng/mL | Cp [4, 9]: ~400 ng/mL | Entry into brain/CSF in vivo as established in the literature [6]: actively transported in to the CSF via the LAT-1 transporter

CN(Cc1cnc2nc(N)nc(N)c2n1)c1ccc(C(=O)N[C@@H](CCC(=O)O)C(=O)O)cc1 [Methotrexate]
Kp uu [5]: 0.04 | Km, uu, iCSF (ChP epithelial barrier [3]): 0.01 | CCSF [4, 10]: 0.27 µM | Cp [4, 9]: 15.8 µM | Entry into brain/CSF in vivo as established in the literature [6]: poorly cross the BBB

NC(N)=N/N=C/c1ccccc1Cl [Sephin 1]
Kp, uu, CSF (total compound brain to plasma ratio) [7]: 10^# | CCSF [8, 11]: ~110 ng/g | Cp [8, 11]: ~11 ng/mL | BBB crossing in mouse ([8]; mouse): cross the BBB | CNS effect against protein misfolding (protein misfolding): protective CNS role against protein misfolding | Permeability in the human organoid model compared with the mouse model (ChP epithelial barrier [2]; 2h incubation, compared with published mouse data): much lower | Presence in iCSF by NMR (ChP epithelial barrier [2]): detectable

CC[C@]1(O)C[C@H]2CN(CCc3c([nH]c4ccccc34)[C@@](C(=O)OC)(c3cc4c(cc3OC)N(C=O)[C@H]3[C@@](O)(C(=O)OC)[C@H](OC(C)=O)[C@]5(CC)C=CCN6CC[C@]43[C@@H]65)C2)C1 [Vincristine]
Kp uu [5]: 0.042 | CCSF [4, 12]: 0.000855 µM | Cp [4, 12]: 0.0205 µM | Entry into brain/CSF in vivo as established in the literature [6]: poorly cross the BBB
